Data published in patent US9247759B2, “Identification of human T2R receptors that respond to bitter compounds that elicit the bitter taste in compositions, and the use thereof in assays to identify compounds that inhibit (block) bitter taste in compositions and use thereof” (SENOMYX, INC., priority 2007, dated 2016).
Like-named read-outs stand apart in the source and are kept apart here.

Tests used:
hT2R8 [1] = target: T1, hT2R8 (Homo sapiens (Human), UniProt Q9NYW2); conditions: compared with taster hT2R43-W35 and hT2R44-W35 alleles, FIG. 6
T1 sequence (Q9NYW2 whole entry): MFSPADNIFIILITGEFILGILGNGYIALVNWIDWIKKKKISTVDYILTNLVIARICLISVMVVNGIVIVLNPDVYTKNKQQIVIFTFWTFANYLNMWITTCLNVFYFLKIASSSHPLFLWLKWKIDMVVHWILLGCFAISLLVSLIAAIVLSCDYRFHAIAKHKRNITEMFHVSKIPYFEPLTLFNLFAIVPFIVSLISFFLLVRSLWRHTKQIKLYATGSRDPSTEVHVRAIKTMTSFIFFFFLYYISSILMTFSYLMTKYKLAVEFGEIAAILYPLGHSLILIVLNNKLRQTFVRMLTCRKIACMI
Description: FIG. 6 is a plot of receptor activity as a function of log of the saccharin concentration.
Pronin et al., Curr. Biol. 17: 1403-8 (2007). Five individuals with the “taster” alleles (hT2R43-W35 and/or hT2R44-W35) and five with the “non-taster” alleles (hT2R43-S35 and hT2R44-R35) were selected based on genotyping analysis. Each subject was presented with 6 pairs of solutions and asked to determine which of the samples in a pair tasted more bitter.

[2] = system: bitter taste of instant coffee; assay: 2-alternative forced choice taste test, instant coffee with hT2R8 antagonists; type: in vivo, human; conditions: antagonist 5 μM
Description: Taste tests were performed with hT2R8 antagonists in instant coffee using a 2-alternative forced choice method with a taste panel of 15-20 panelists. Coffee samples with the antagonists were given to the taste panelists together with the same sample without antagonists, the panelists were asked to identify the bitterer sample within the pair.

[3] = system: bitterness of T2R8 specific agonist; assay: Taste test with T2R8 specific agonist comparing a control bitter blocker and compound of interest; type: in vivo, human; conditions: antagonist conc. 1
Description: To determine the effectiveness of an individual antagonist, taste tests were performed with a T2R8 specific agonist, the compound of interest and a reference bitter blocker. We have previously described a good hT2R8 antagonist that was proven to have taste effect, Example 4-8 from U.S. Provisional Appl. Ser. No. 60/957,129, filed Aug. 21, 2007: N-(1-((3,5-dimethylisoxazol-4-yl)methyl)-1H-pyrazol-4-yl)benzo[d][1,3]dioxole-5-carboxamide.

hT2R8 [4] = target: T1, hT2R8; assay: hT2R8 antagonist high-throughput FLIPR assay, stable cell line with G16g44, agonist andrographolide; type: cell-based
Procedure, shortened: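 Antagonist screen: compounds co-applied with agonist andrographolide at 200 μM, a dose giving 70–80% of maximal hT2R8 activation. Fluorescence measured by FLIPR in a stable HEK293 line expressing both hT2R8 and the promiscuous G16g44 protein.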

Structure (SMILES)	responsiveness of hT2R8 to saccharin (hT2R8 [1])	Selected as bitterer: With antagonists [2]	Selected as bitterer: Without antagonists [2]	Selected as more bitter: +other ([3]; sample with 10-10)	Selected as more bitter: 10-8 ([3]; sample with control blocker 10-8)	IC50 (hT2R8 [4]; Table 6, read-out: HTS assay IC50)	IC50 (hT2R8 [4]; table after Example 10-97, read-out: hT2R8 IC50)	IC50 (hT2R8 [4]; unit uM, read-out: IC50 on hT2R08 bitter receptor)
O=C1NS(=O)(=O)c2ccccc21 [saccharin]	less responsive							
Cc1noc(C)c1Cn1cc(N2C(=O)CN(Cc3cccc(O)c3)C2=O)cn1 [Example 10-10, 3-(1-((3,5-dimethylisoxazol-4-yl)methyl)-1H-pyrazol-4-yl)-1-(3-hydroxybenzyl)imidazolidine-2,4-dione]		2	14	2	14	0.02 to 0.04 µM	0.026 µM	0.035 µM
